The text below walks through data of PubChem BioAssay (NCI).

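The compound was tested at five concentrations on cells cultured in 96-well plates, with a 48-hour exposure period. TGI: concentration producing complete growth inhibition.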

Test systems include HT29 colon; M14 melanoma; MALME-3M melanoma; NCI-H226 lung; NCI-H460 lung; NCI-H522 lung; OVCAR-3 ovarian; OVCAR-4 ovarian; RPMI-8226 leukemia; SF-268 CNS; SF-295 CNS; SF-539 CNS; UACC-257 melanoma; UO-31 renal; BT-549 breast; MDA-MB-231 breast; MDA-MB-435.
Holding throughout (test): NCI-60 cell line screen, 48 h

For `CCOc1ccc(OP2(=O)NC(=O)C=C(C)N2)cc1` (stereo unspecified), the TGI with HT29 colon, with M14 melanoma, in the assay on MALME-3M melanoma, with NCI-H226 lung, in the assay with NCI-H460 lung and with NCI-H522 lung was more than 100 µM throughout. Moreover, the TGI with OVCAR-3 ovarian, with OVCAR-4 ovarian, in the assay with RPMI-8226 leukemia, with SF-268 CNS, in the assay on SF-295 CNS and in the assay on SF-539 CNS was more than 100 µM throughout. Also, the TGI in the assay on UACC-257 melanoma and with UO-31 renal was more than 100 µM in each case.

Regarding `COc1cc(S(=O)(=O)Nc2nc(-c3ccc(N=Cc4ccccc4O)cc3)cs2)ccc1Cl`, the TGI in the assay on BT-549 breast, with HT29 colon, with M14 melanoma, in the assay with MALME-3M melanoma, in the assay on MDA-MB-231 breast and with MDA-MB-435 was more than 100 µM throughout. For the same compound, the TGI in the assay with NCI-H226 lung, in the assay on NCI-H460 lung, with NCI-H522 lung, with OVCAR-3 ovarian, in the assay on OVCAR-4 ovarian and with SF-268 CNS was more than 100 µM throughout. For the same compound, the TGI with SF-295 CNS, in the assay on SF-539 CNS, in the assay on UACC-257 melanoma and in the assay on UO-31 renal was more than 100 µM throughout.

Consider `COC(=O)C1CC2CC1C1C2SC(F)(F)C1(F)F` (stereo unspecified), for which the TGI in the assay on M14 melanoma, in the assay with MALME-3M melanoma, in the assay on MDA-MB-231 breast, in the assay with MDA-MB-435, in the assay with NCI-H226 lung and in the assay on NCI-H460 lung was more than 100 µM each time. For the same compound, the TGI in the assay on NCI-H522 lung, in the assay on OVCAR-3 ovarian, with OVCAR-4 ovarian, in the assay with RPMI-8226 leukemia, with SF-268 CNS and in the assay on SF-295 CNS was more than 100 µM each time. The TGI with SF-539 CNS, in the assay with UACC-257 melanoma and with UO-31 renal was more than 100 µM throughout.

Consider `Cc1cc(C=O)c2c(=O)c3c(O)ccc(/C=C/C(C)C)c3oc2c1`, for which the TGI in the assay on HT29 colon was more than 100 µM; in the assay with M14 melanoma it was more than 100 µM; with MALME-3M melanoma, more than 100 µM; in the assay with NCI-H226 lung, more than 100 µM; in the assay on NCI-H460 lung, more than 100 µM; in the assay with NCI-H522 lung, 74 µM. Further, the TGI in the assay with OVCAR-3 ovarian was more than 100 µM; with OVCAR-4 ovarian it was more than 100 µM; in the assay on RPMI-8226 leukemia, 58.8 µM; in the assay with SF-268 CNS it was more than 100 µM; in the assay on SF-295 CNS it was more than 100 µM; with SF-539 CNS, more than 100 µM. In addition, the TGI in the assay with UACC-257 melanoma and in the assay on UO-31 renal was more than 100 µM in each case.

On to `COC(=O)N/N=c1\cc(C(=O)Nc2ccc(C)c(C)c2)oc2cc(O)ccc12`, for which the TGI in the assay on HT29 colon, in the assay with M14 melanoma, with MALME-3M melanoma, with NCI-H226 lung, in the assay with NCI-H460 lung and in the assay on NCI-H522 lung was more than 100 µM in each case. Further, the TGI with OVCAR-3 ovarian, with OVCAR-4 ovarian, in the assay with SF-268 CNS, in the assay with SF-295 CNS, in the assay with SF-539 CNS and with UACC-257 melanoma was more than 100 µM throughout. Also, the TGI with UO-31 renal was more than 100 µM.

As to `COc1cc(CCN)c(OC)c(OC)c1`, the TGI with BT-549 breast is more than 100 µM; with HT29 colon, more than 100 µM; with M14 melanoma, more than 100 µM; with MALME-3M melanoma, more than 100 µM; in the assay with MDA-MB-231 breast it was more than 100 µM; in the assay on MDA-MB-435 it was 61.1 µM. Moreover, the TGI in the assay with NCI-H460 lung, in the assay with NCI-H522 lung, in the assay with OVCAR-3 ovarian, in the assay on OVCAR-4 ovarian, in the assay with RPMI-8226 leukemia and in the assay with SF-268 CNS was more than 100 µM in each case. The TGI in the assay with SF-295 CNS, in the assay on UACC-257 melanoma and in the assay on UO-31 renal was more than 100 µM in each case.

Consider `COC(=O)c1c(C)cccc1C1CN=NC12Cc1cc(C)c(C)cc1C2=O` (stereo unspecified), for which the TGI in the assay on BT-549 breast, in the assay with HT29 colon, with M14 melanoma, with MALME-3M melanoma, with MDA-MB-231 breast and with MDA-MB-435 was more than 100 µM in each case. Also, the TGI is more than 100 µM with NCI-H226 lung; more than 100 µM with NCI-H460 lung; 54.6 µM in the assay on NCI-H522 lung; more than 100 µM with OVCAR-3 ovarian; more than 100 µM with OVCAR-4 ovarian; more than 100 µM in the assay on SF-268 CNS. In addition, the TGI in the assay with SF-295 CNS, with SF-539 CNS, in the assay on UACC-257 melanoma and in the assay with UO-31 renal was more than 100 µM in each case.

On to `CCN(CC)/[N+]([O-])=N/OS(=O)(=O)N(C)C`, for which the TGI with HT29 colon, with M14 melanoma, with MALME-3M melanoma, with MDA-MB-231 breast, in the assay with MDA-MB-435 and in the assay with NCI-H226 lung was more than 100 µM throughout. The TGI in the assay with NCI-H460 lung, with NCI-H522 lung, in the assay on OVCAR-3 ovarian, in the assay on OVCAR-4 ovarian, in the assay with RPMI-8226 leukemia and with SF-268 CNS was more than 100 µM in each case. Besides, the TGI in the assay with SF-295 CNS, in the assay on SF-539 CNS and with UACC-257 melanoma was more than 100 µM in each case.

As for `O=C(NC1CCCCC1)c1n[nH]nc1Cl`, the TGI in the assay on BT-549 breast, with HT29 colon, in the assay with M14 melanoma, with MDA-MB-231 breast, in the assay with MDA-MB-435 and with NCI-H460 lung was more than 100 µM each time. Also, the TGI with OVCAR-3 ovarian, with OVCAR-4 ovarian, in the assay on SF-268 CNS, in the assay with SF-295 CNS, in the assay with SF-539 CNS and with UACC-257 melanoma was more than 100 µM in each case. Also, the TGI with UO-31 renal was more than 100 µM.

Take `CN(Cc1cccc2ccsc12)/N=C\c1ccc(Cl)cc1`: the TGI with BT-549 breast, with HT29 colon, in the assay with M14 melanoma, with MALME-3M melanoma, with MDA-MB-231 breast and in the assay with MDA-MB-435 was more than 100 µM throughout. The TGI with NCI-H226 lung is more than 100 µM; in the assay on NCI-H460 lung it was more than 100 µM; in the assay with NCI-H522 lung it was more than 100 µM; with OVCAR-3 ovarian, 48.3 µM; with OVCAR-4 ovarian, more than 100 µM; in the assay with SF-268 CNS, more than 100 µM. The figures for the TGI in the assay with SF-295 CNS, with UACC-257 melanoma and in the assay with UO-31 renal were more than 100 µM, 95.4 µM and more than 100 µM, respectively.
